# Experimental data taken from US20230091047A1 (priority 2019, published 2023).
# Where two headings read alike, the source gives them in different places.
# Columns and labels:
# [1] = test system: HBV (HepG2.117 cell line, inducibly HBV producing); experiment: Anti-HBV activity: intracellular HBV DNA by real-time PCR in HepG2.117 cells after 3 days of treatment; assay type: cell-based, hepatitis B virus
# Method in brief: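 Antiviral effect is expressed through intracellular HBV DNA levels, determined by real-time PCR with a virus-specific probe. These levels were measured after 3 days of treatment with compound dilutions, in HepG2.117 cells induced to replicate HBV.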
# in vitro = assay type: cell-based; conditions: human, HepG2 or HepG2.117 cells, mean value
# Method in brief: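 Luminescent ATP quantitation served as the viability endpoint following a 3- or 4-day incubation with test compounds.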
# [2] = Hepatitis B virus, HepG2.117, 72 h, HepG2.117 cells, intracellular HBV DNA by real-time PCR, 3 days of treatment, mean value; read-out: EC50 (μM, mean value)
# [3] = ATPlite, 3-days incubation (not marked with *)
# [4] = Hepatitis B virus, HepG2.117, 72 h, HepG2.117 cells, 3 days of treatment, intracellular HBV DNA by real-time PCR; mean value; read-out: EC50 (μM, mean value)
# [5] = 3-days incubation (unmarked values), ATPlite
Structure (SMILES),"EC50 [1, 2]",CC50 at 3 days (in vitro; [3]),"EC50 [1, 4]",CC50 at 3 days (in vitro; [5]),"CC50 at 3 days (in vitro; 3-days incubation (unmarked values), ATPlite viability)"
CNC(=O)c1ccc(-n2c(NC(C)Cc3c[nH]c4ccc(F)cc34)nc3c(c2=O)C[C@@H](C)N(C(=O)c2ccc(Cl)c(Cl)c2)C3)cc1 (stereo partly drawn) [Compound C548],0.58 µM,10.3 µM,–,–,–
"CNC(=O)c1ccc(-n2c(NC(C)C)nc3c(c2=O)C[C@@H](C)N(C(=O)c2ccc(Cl)c(Cl)c2)C3)c(Cl)c1 [Compound C293, 3-chloro-4-[(6R)-7-(3,4-dichlorobenzoyl)-6-methyl-4-oxo-2-[(propan-2-yl)amino]-5,6,7,8-tetrahydropyrido[3,4-d]pyrimidin-3(4H)-yl]-N-methylbenzamide]",–,–,0.06 µM,34.9 µM,–
CNC(=O)c1ccc(-n2c(NC(C)C)nc3c(c2=O)C[C@@H](C)N(C(=O)c2cc(Cl)c(Br)cc2F)C3)cc1 [Compound C577],0.17 µM,> 50 µM,–,–,–
CNC(=O)c1ccc(-n2c(NC(C)C)nc3c(c2=O)C[C@@H](C)N(C(=O)c2ccc(Br)cc2Cl)C3)cc1 [Compound C565],0.68 µM,> 50 µM,–,–,–
"CCC(C)Nc1nc2c(c(=O)n1-c1ccccc1OC)CCN(C(=O)c1ccc(Cl)c(Cl)c1)C2 (stereo not drawn) [Compound C49, 2-[(butan-2-yl)amino]-7-(3,4-dichlorobenzoyl)-3-(2-methoxyphenyl)-5,6,7,8-tetrahydropyrido[3,4-d]pyrimidin-4(3H)-one]",–,–,2.41 µM,26.8 µM,–
"CC[C@@H](C)Oc1nc2c(c(=O)n1-c1ccc(C(=O)NC)cc1)C[C@@H](C)N(C(=O)c1ccc(Cl)c(Cl)c1)C2 [Compound C397, 4-(R-2-(R-sec-butoxy)-7-(3,4-dichlorobenzoyl)-6-methyl-4-oxo-5,6,7,8-tetrahydropyrido[3,4-d]pyrimidin-3(4H)-yl)-N-methylbenzamide]",0.05 µM,25.2 µM,–,–,–
"CNC(=O)c1ccc(-n2c(NC3(C)CC3)nc3c(c2=O)C[C@@H](C)N(C(=O)c2ccc(Cl)c(Cl)c2)C3)cc1 [Compound C297, 4-[(6R)-7-(3,4-dichlorobenzoyl)-6-methyl-2-[(1-methylcyclopropyl)amino]-4-oxo-5,6,7,8-tetrahydropyrido[3,4-d]pyrimidin-3(4H)-yl]-N-methylbenzamide]",–,–,0.05 µM,> 50 µM,–
CNC(=O)c1ccc(-n2c(NC(C)C)nc3c(c2=O)C[C@@H](C)N(C(=O)c2cc4ccc(OC)cc4s2)C3)cc1 [Compound C524],1.36 µM,> 50 µM,–,–,–
"CCc1cc(C(=O)N2CCc3c(nc(NC(C)C)n(-c4ccc(S(C)(=O)=O)cc4)c3=O)C2)ccc1Cl [Compound C193, 7-(4-chloro-3-ethylbenzoyl)-3-[4-(methanesulfonyl)phenyl]-2-[(propan-2-yl)amino]-5,6,7,8-tetrahydropyrido[3,4-d]pyrimidin-4(3H)-one]",–,–,0.62 µM,> 50 µM,–
"COCCn1c(NCc2ccccc2)nc2c(c1=O)CCN(C(=O)c1ccc(Cl)c(Cl)c1)C2 [Compound C28, 2-(benzylamino)-7-(3,4-dichlorobenzoyl)-3-(2-methoxyethyl)-5,6,7,8-tetrahydropyrido[3,4-d]pyrimidin-4(3H)-one]",–,–,9.1 µM,25.2 µM,–
CC(C)Nc1nc2c(c(=O)n1-c1ccc(S(C)(=O)=O)cc1)CCN(C(=O)c1ccc3ocnc3c1)C2 [Compound C364],–,–,> 7.2 µM,> 50 µM,–
CNC(=O)c1ccc(-n2c(NC(C)C)nc3c(c2=O)C[C@@H](C)N(C(=O)c2ccc(Cl)c(OC(F)F)c2)C3)cc1 [Compound C679],0.21 µM,> 50 µM,–,–,–
"CNC(=O)c1ccc(-n2c(NCc3ccc(OC)cc3)nc3c(c2=O)CCN(C(=O)c2ccc(Cl)c(Cl)c2)C3)cc1 [Compound C129, 4-[7-(3,4-dichlorobenzoyl)-2-{[(4-methoxyphenyl)methyl]amino}-4-oxo-5,6,7,8-tetrahydropyrido[3,4-d]pyrimidin-3(4H)-yl]-N-methylbenzamide]",–,–,0.44 µM,44.4 µM,–
CNC(=O)c1csc(-n2c(NC(C)C)nc3c(c2=O)C[C@@H](C)N(C(=O)c2ccc(Cl)c(Cl)c2)C3)n1 [Compound C379],0.22 µM,22.1 µM,–,–,–
CNC(=O)c1ccc(-n2c(NC(C)C)nc3c(c2=O)C[C@@H](C)N(C(=O)c2cc(F)c(Cl)cc2Cl)C3)cc1 [Compound C472],0.92 µM,> 50 µM,–,–,–
CC(C)NC(=O)c1ncc(-n2c(NC(C)C)nc3c(c2=O)C[C@@H](C)N(C(=O)c2ccc(Cl)c(C(F)(F)F)c2)C3)n1C [Compound C703],–,–,0.09 µM,–,> 50 µM
"CNC(=O)c1ccc([C@H](C)Nc2nc3c(c(=O)n2-c2ccc(NC(C)=O)cc2)C[C@@H](C)N(C(=O)c2ccc(Cl)c(Cl)c2)C3)cc1 (single isomer, unassigned) [Compound C528b]",> 10 µM,> 50 µM,–,–,–

Structure (SMILES),"EC50 [1, 2]",CC50 at 3 days (in vitro; [3]),"EC50 [1, 4]",CC50 at 3 days (in vitro; [5]),"CC50 at 3 days (in vitro; 3-days incubation (unmarked values), ATPlite viability)"
"CNC(=O)c1ccc(-n2c(N[C@H](C)c3cccnc3)nc3c(c2=O)C[C@@H](C)N(C(=O)c2ccc(Cl)c(Cl)c2)C3)cc1 (single isomer, unassigned) [Compound C377a]",0.82 µM,> 50 µM,–,–,–
CNC(=O)c1ccc(-n2c(NC(C)C)nc3c(c2=O)C[C@@H](C)N(C(=O)c2cc(F)cc(F)c2)C3)cc1 [Compound C502],8.95 µM,> 50 µM,–,–,–
CNC(=O)c1ccc(-n2c(NC(C)C)nc3c(c2=O)C[C@@H](C)N(C(=O)c2[nH]nc(C(F)(F)F)c2C)C3)cc1 [Compound C493],15.2 µM,> 50 µM,–,–,–
CNC(=O)c1ccc(-n2c(NC(C)Cn3cnnc3)nc3c(c2=O)C[C@@H](C)N(C(=O)c2ccc(Cl)c(Cl)c2)C3)cc1 (stereo partly drawn) [Compound C481],> 25 µM,> 50 µM,–,–,–
"CNC(=O)c1ccc(-n2c(N[C@@H](C)c3cccc(OC)c3)nc3c(c2=O)C[C@@H](C)N(C(=O)c2ccc(Cl)c(Cl)c2)C3)cc1 (single isomer, unassigned) [Compound C394b]",0.15 µM,29 µM,–,–,–
"CC(C)Nc1nc2c(c(=O)n1-c1ccc(C(=O)NC3(C(=O)O)CC3)cc1)C[C@@H](C)N(C(=O)c1ccc(Cl)c(Cl)c1)C2 [Compound C266, 1-{4-[(6R)-7-(3,4-dichlorobenzoyl)-6-methyl-4-oxo-2-[(propan-2-yl)amino]-5,6,7,8-tetrahydropyrido[3,4-d]pyrimidin-3(4H)-yl]benzamido}cyclopropane-1-carboxylic acid]",–,–,13.4 µM,> 50 µM,–
"COc1ccccc1-n1c(NCc2ccc(S(C)(=O)=O)cc2)nc2c(c1=O)CCN(C(=O)c1ccc(Cl)c(Cl)c1)C2 [Compound C27, 7-(3,4-dichlorobenzoyl)-2-({[4-(methanesulfonyl)phenyl]methyl}amino)-3-(2-methoxyphenyl)-5,6,7,8-tetrahydropyrido[3,4-d]pyrimidin-4(3H)-one]",–,–,1.98 µM,> 50 µM,–
CNC(=O)c1ccc(-n2c(OC(C)C)nc3c(c2=O)C[C@@H](C)N(C(=O)c2ccc(Cl)c(Cl)c2)C3)c(Cl)c1 [Compound C403a],0.06 µM,36.7 µM,–,–,–
CNC(=O)c1ccc(-n2c(NC(C)C)nc3c(c2=O)C[C@@H](C)N(C(=O)c2cccc(Cl)c2OC)C3)cc1 [Compound C504],1.01 µM,> 50 µM,–,–,–
CC(C)Nc1nc2c(c(=O)n1-c1ccc(S(C)(=O)=O)cc1)CCN(C(=O)c1ccc(C(F)(F)F)nc1)C2 [Compound C367],–,–,> 10 µM,> 50 µM,–
"CC(C)Nc1nc2c(c(=O)n1-c1ccc(C(N)=O)cc1)C[C@@H](C)N(C(=O)c1ccc(Cl)c(Cl)c1)C2 [Compound C195, 4-[(6R)-7-(3,4-dichlorobenzoyl)-6-methyl-4-oxo-2-[(propan-2-yl)amino]-5,6,7,8-tetrahydropyrido[3,4-d]pyrimidin-3(4H)-yl]benzamide]",–,–,0.16 µM,> 50 µM,–
"COc1ccc(CNc2nc3c(c(=O)n2-c2ccnnc2)CCN(C(=O)c2ccc(Cl)c(Cl)c2)C3)cc1 [Compound C135, 7-(3,4-dichlorobenzoyl)-2-{[(4-methoxyphenyl)methyl]amino}-3-(pyridazin-4-yl)-5,6,7,8-tetrahydropyrido[3,4-d]pyrimidin-4(3H)-one]",–,–,1.13 µM,23.3 µM,–
CNC(=O)c1ccc(-n2c(NC(C)(C)C3CC3)nc3c(c2=O)C[C@@H](C)N(C(=O)c2ccc(Cl)c(Cl)c2)C3)cc1 [Compound C396],0.08 µM,39.5 µM,–,–,–
"CNC(=O)c1ccc(-n2c(N[C@H](C)C3CC3)nc3c(c2=O)C[C@@H](C)N(C(=O)c2ccc(Cl)c(Cl)c2)C3)cc1 [Compound C295, 4-[(6R)-2-{[(1R)-1-cyclopropylethyl]amino}-7-(3,4-dichlorobenzoyl)-6-methyl-4-oxo-5,6,7,8-tetrahydropyrido[3,4-d]pyrimidin-3(4H)-yl]-N-methylbenzamide]",–,–,0.22 µM,37.2 µM,–
"CNC(=O)c1ccc(-n2c(NCc3c[nH]c4ccc(OC)cc34)nc3c(c2=O)C[C@@H](C)N(C(=O)c2ccc(Cl)c(Cl)c2)C3)cc1 [Compound C275, 4-[(6R)-7-(3,4-dichlorobenzoyl)-2-{[(5-methoxy-1H-indol-3-yl)methyl]amino}-6-methyl-4-oxo-5,6,7,8-tetrahydropyrido[3,4-d]pyrimidin-3(4H)-yl]-N-methylbenzamide]",–,–,1.58 µM,> 50 µM,–
"CNC(=O)c1cccc(-n2c(NC(C)C)nc3c(c2=O)C[C@@H](C)N(C(=O)c2ccc(Cl)c(Cl)c2)C3)c1 [Compound C232, 3-[(6R)-7-(3,4-dichlorobenzoyl)-6-methyl-4-oxo-2-[(propan-2-yl)amino]-5,6,7,8-tetrahydropyrido[3,4-d]pyrimidin-3(4H)-yl]-N-methylbenzamide]",–,–,0.15 µM,> 50 µM,–
